Here are results for seven compounds from patent EP0538001A1, “MRSA active 2-halophenyl carbapenems” (MERCK & CO. INC., priority 1991, dated 1993).

This assay relates to MRSA. Description: Activity against a strain of MRSA pathogen, relative to thienamycin. It counts as cell-based, methicillin resistant Staphylococcus aureus. Particulars: relative to the effectiveness of thienamycin, arbitrarily assigned an effectiveness of 1; one strain of MRSA. How it is done: The activity of the following compounds was measured against a strain of MRSA pathogen and reported as relative to the effectiveness of thienamycin, which is arbitrarily assigned an effectiveness of 1. Regarding this measure of activity, reference is made to R. Guthikonda, et al., J. Med. Chem., 30, 871 (1987). [drawing 18]

Turning to `C[C@@H](O)[C@H]1C(=O)N2C(C(=O)O)=C(c3cccc(Br)c3)C[C@H]12` [R^a1 = Br, R^a2 = H, sodium (5R,6S)-2-[3-bromophenyl]-6[(1R)-1-hydroxyethyl]-carbapen-2-em-3-carboxylate], the “ANTI-INFECTIVE ACTIVITY MRSA” value was 14. As for `C[C@@H](O)[C@H]1C(=O)N2C(C(=O)O)=C(c3cccc(Cl)c3)C[C@H]12` [R^a1 = Cl, R^a2 = H], the “ANTI-INFECTIVE ACTIVITY MRSA” value was 8.1.

In the case of `C[C@@H](O)[C@H]1C(=O)N2C(C(=O)O)=C(c3ccc(Cl)cc3)C[C@H]12` [R^a1 = H, R^a2 = Cl], the “ANTI-INFECTIVE ACTIVITY MRSA” value is given as 1.3. For the compound `C[C@@H](O)[C@H]1C(=O)N2C(C(=O)O)=C(c3cccc(F)c3)C[C@H]12` [R^a1 = F, R^a2 = H], the “ANTI-INFECTIVE ACTIVITY MRSA” value stood at 2. For `C[C@@H](O)[C@H]1C(=O)N2C(C(=O)O)=C(c3ccc(I)cc3)C[C@H]12` [R^a1 = H, R^a2 = I], the “ANTI-INFECTIVE ACTIVITY MRSA” value is reported as 1.8. Turning to `C[C@@H](O)[C@H]1C(=O)N2C(C(=O)O)=C(c3ccc(F)cc3)C[C@H]12` [R^a1 = H, R^a2 = F], the “ANTI-INFECTIVE ACTIVITY MRSA” value is 1.1. `C[C@@H](O)[C@H]1C(=O)N2C(C(=O)O)=C(c3ccc(Br)cc3)C[C@H]12` [R^a1 = H, R^a2 = Br]: the “ANTI-INFECTIVE ACTIVITY MRSA” value was found to be 1.6.
